Laboratory results published in publication PMC11530689, “Anti colorectal cancer activity and in silico studies of novel pyridine nortopsentin analog as cyclin dependent kinase 6 inhibitor” (Scientific Reports, 2024).

How the values were obtained:
Assay in all cases: NCI 60 cell line screen
Type in all cases: cell-based
A498 = settings: A498, Renal Cancer; single concentration 10^−5 M
Procedure, shortened: (§1)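 The National Cancer Institute (Bethesda) ran the cytotoxicity testing, exposing each of 60 cancer cell lines to one concentration, 10^-5 M.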

ACHN = settings: Renal Cancer, single concentration 10^−5 M
Procedure, shortened: as §1

EKVX = settings: Non-Small Cell Lung Cancer, single concentration 10^−5 M
Procedure, shortened: as §1

HCT-15 = settings: HCT-15, Colon Cancer; single concentration 10^−5 M
Procedure, shortened: as §1

HOP-62 = settings: HOP-62, Non-Small Cell Lung Cancer; single concentration 10^−5 M
Procedure, shortened: as §1

HOP-92 = settings: HOP-92, Non-Small Cell Lung Cancer; single concentration 10^−5 M
Procedure, shortened: as §1

IGROV1 = settings: IGROV1, Ovarian Cancer; single concentration 10^−5 M
Procedure, shortened: as §1

K-562 = settings: K-562, Leukemia; single concentration 10^−5 M
Procedure, shortened: as §1

KM12 = settings: KM12, Colon Cancer; single concentration 10^−5 M
Procedure, shortened: as §1

MALME-3M = settings: Melanoma, single concentration 10^−5 M
Procedure, shortened: as §1

MCF7 = settings: MCF7, Breast Cancer; single concentration 10^−5 M
Procedure, shortened: as §1

NCI/ADR-RES = settings: Ovarian Cancer, single concentration 10^−5 M
Procedure, shortened: as §1

OVCAR-3 = settings: OVCAR-3, Ovarian Cancer; single concentration 10^−5 M
Procedure, shortened: as §1

OVCAR-8 = settings: OVCAR-8, Ovarian Cancer; single concentration 10^−5 M
Procedure, shortened: as §1

SF-268 = settings: SF-268, CNS Cancer; single concentration 10^−5 M
Procedure, shortened: as §1

SF-539 = settings: SF-539, CNS Cancer; single concentration 10^−5 M
Procedure, shortened: as §1

SK-MEL-5 = settings: SK-MEL-5, Melanoma; single concentration 10^−5 M
Procedure, shortened: as §1

SN12C = settings: Renal Cancer, single concentration 10^−5 M
Procedure, shortened: as §1

SNB-19 = settings: SNB-19, CNS Cancer; single concentration 10^−5 M
Procedure, shortened: as §1

SR = settings: Leukemia, single concentration 10^−5 M
Procedure, shortened: as §1

SW-620 = settings: SW-620, Colon Cancer; single concentration 10^−5 M
Procedure, shortened: as §1

UO-31 = settings: UO-31, Renal Cancer; single concentration 10^−5 M
Procedure, shortened: as §1

CCRF-CEM = settings: Leukemia, single concentration 10^−5 M
Procedure, shortened: as §1

Compound	Growth % (A498)	Growth % (ACHN)	Growth % (EKVX)	Growth % (HCT-15)	Growth % (HOP-62)	Growth % (HOP-92)	Growth % (IGROV1)	Growth % (K-562)	Growth % (KM12)	Growth % (MALME-3M)	Growth % (MCF7)	Growth % (NCI/ADR-RES)	Growth % (OVCAR-3)	Growth % (OVCAR-8)	Growth % (SF-268)	Growth % (SF-539)	Growth % (SK-MEL-5)	Growth % (SN12C)	Growth % (SNB-19)	Growth % (SR)	also measured
COc1cc(OC)cc(-c2cc(-c3c[nH]c4ccccc34)nc(-c3c[nH]c4ccccc34)c2C#N)c1 [4f]	96.67%	97.24%	91.45%	101.68%	96.31%	95.02%	93.71%	93.22%	98.72%	108.42%	90.74%	97.14%	99.19%	102.00%	99.97%	94.25%	98.48%	95.11%	96.57%	81.27%	Growth % (SW-620): 102.51%; Growth % (UO-31): 71.31%
COc1ccc(-c2cc(-c3c[nH]c4ccccc34)nc(-c3c[nH]c4ccccc34)c2C#N)cc1 [4e]	108.69%	95.12%	91.11%	89.77%	90.00%	82.07%	85.18%	96.99%	96.65%	113.82%	90.48%	108.38%	96.29%	98.49%	105.10%	93.61%	97.12%	99.19%	102.42%	89.59%	Growth % (CCRF-CEM): 101.65%; Growth % (SW-620): 113.43%; Growth % (UO-31): 74.78%
N#Cc1c(-c2ccc([N+](=O)[O-])cc2)cc(-c2c[nH]c3ccccc23)nc1-c1c[nH]c2ccccc12 [4h]	99.31%	94.69%	82.20%	99.04%	99.88%	98.33%	81.21%	94.26%	98.09%	102.24%	90.39%	96.36%	97.76%	98.23%	93.92%	97.59%	97.67%	98.48%	100.62%	84.51%	Growth % (CCRF-CEM): 103.06%; Growth % (SW-620): 105.72%; Growth % (UO-31): 70.38%
COc1cc(-c2cc(-c3c[nH]c4ccccc34)nc(-c3c[nH]c4ccccc34)c2C#N)cc(OC)c1OC [4g]	103.11%	98.52%	87.27%	100.84%	87.93%	92.84%	74.20%	90.08%	99.69%	88.70%	88.35%	100.17%	102.73%	98.26%	97.03%	93.66%	98.25%	91.09%	98.31%	94.92%	Growth % (CCRF-CEM): 99.17%; Growth % (SW-620): 100.40%; Growth % (UO-31): 65.92%
N#Cc1c(-c2ccccc2)cc(-c2c[nH]c3ccccc23)nc1-c1c[nH]c2ccccc12 [4a]	98.67%	96.37%	83.07%	99.26%	92.66%	92.10%	82.09%	100.60%	102.51%	99.77%	94.97%	98.30%	109.77%	98.73%	96.15%	98.60%	99.18%	95.61%	97.62%	96.68%	Growth % (CCRF-CEM): 102.65%; Growth % (SW-620): 101.78%; Growth % (UO-31): 68.28%
N#Cc1c(-c2ccc(F)cc2)cc(-c2c[nH]c3ccccc23)nc1-c1c[nH]c2ccccc12 [4d]	89.44%	101.89%	92.76%	99.59%	100.69%	93.44%	102.10%	104.54%	100.66%	101.85%	89.33%	103.38%	102.48%	100.20%	101.12%	100.06%	100.33%	98.76%	102.08%	89.11%	Growth % (CCRF-CEM): 102.09%; Growth % (SW-620): 106.63%; Growth % (UO-31): 84.72%
N#Cc1c(-c2ccc(Br)cc2)cc(-c2c[nH]c3ccccc23)nc1-c1c[nH]c2ccccc12 [4b]	95.35%	99.45%	85.89%	97.86%	98.17%	92.57%	73.65%	96.82%	99.86%	103.25%	85.19%	99.61%	102.43%	96.50%	100.28%	97.32%	97.46%	96.36%	98.35%	94.65%	Growth % (CCRF-CEM): 102.80%; Growth % (SW-620): 105.18%; Growth % (UO-31): 71.05%
N#Cc1c(-c2ccc(O)cc2)cc(-c2c[nH]c3ccccc23)nc1-c1c[nH]c2ccccc12 [4j]	110.66%	72.15%	100.08%	57.19%	94.38%	125.42%	76.43%	67.98%	96.89%	114.20%	87.55%	102.41%	92.93%	99.60%	105.02%	66.62%	84.85%	95.63%	108.35%	76.19%	Growth % (CCRF-CEM): 76.51%; Growth % (SW-620): 108.39%; Growth % (UO-31): 78.37%
N#Cc1c(-c2ccc(Cl)cc2)cc(-c2c[nH]c3ccccc23)nc1-c1c[nH]c2ccccc12 [4c]	97.38%	101.81%	87.50%	98.27%	93.62%	99.01%	91.10%	97.57%	102.73%	107.80%	89.99%	98.53%	107.09%	101.97%	103.64%	98.85%	99.39%	97.84%	101.34%	98.46%	Growth % (CCRF-CEM): 101.97%; Growth % (SW-620): 106.55%; Growth % (UO-31): 70.21%
